Laboratory results published in publication PMC12595434, “Development of retinoid nuclear receptor pathway antagonists through targeting aldehyde dehydrogenase 1A3” (iScience, 2025).

What was measured:
[1] = target: T1, FAM204A (Homo sapiens, UniProt Q9H8W3); assay: Thermal proteome profiling (TPP) in A375 cells; type: cell-based
T1 construct: Treated A375 cells were harvested from 10 × 15 cm plates; endogenous in cells; host or cells: A375 melanoma cells

[2] = target: T2, MARCKSL1 (Homo sapiens, UniProt P49006); assay: Thermal proteome profiling (TPP) in A375 cells; type: cell-based; details: MARCKSL1, 1 uM
T2 construct: Treated A375 cells were harvested from 10 × 15 cm plates; endogenous in cells; host or cells: A375 melanoma cells
T2 sequence (P49006 whole entry): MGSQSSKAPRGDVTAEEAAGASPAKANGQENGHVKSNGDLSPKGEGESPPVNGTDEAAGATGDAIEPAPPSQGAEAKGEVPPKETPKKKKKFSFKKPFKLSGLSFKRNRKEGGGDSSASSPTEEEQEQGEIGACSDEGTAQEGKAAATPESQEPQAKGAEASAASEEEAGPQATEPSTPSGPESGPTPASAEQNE

[3] = target: V1A (Homo sapiens, UniProt P37288); assay: Off-target profiling panel; type: binding; details: read-out: Inhibition by MBE1 at 10 μM (%)
Sequence of V1A (P37288 whole entry): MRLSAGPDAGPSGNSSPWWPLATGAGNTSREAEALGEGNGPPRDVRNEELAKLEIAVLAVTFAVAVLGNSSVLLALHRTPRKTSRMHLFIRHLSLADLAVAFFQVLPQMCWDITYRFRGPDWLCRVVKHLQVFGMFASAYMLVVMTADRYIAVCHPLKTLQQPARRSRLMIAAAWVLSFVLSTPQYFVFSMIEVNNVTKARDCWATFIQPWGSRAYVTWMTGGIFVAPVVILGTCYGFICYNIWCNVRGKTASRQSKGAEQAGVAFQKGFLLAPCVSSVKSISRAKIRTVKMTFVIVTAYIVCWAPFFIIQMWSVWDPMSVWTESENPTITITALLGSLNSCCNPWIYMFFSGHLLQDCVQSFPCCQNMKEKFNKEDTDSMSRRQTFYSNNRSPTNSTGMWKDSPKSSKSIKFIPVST

[4] = tested on: Ca2+-L; assay: Off-target profiling panel; type: binding; details: 10 μM
[5] = target: 5HT2A (Homo sapiens, UniProt P28223); assay: Off-target profiling panel; type: binding; details: read-out: Inhibition by MBE1 at 10 μM (%)
Sequence of 5HT2A (P28223 whole entry): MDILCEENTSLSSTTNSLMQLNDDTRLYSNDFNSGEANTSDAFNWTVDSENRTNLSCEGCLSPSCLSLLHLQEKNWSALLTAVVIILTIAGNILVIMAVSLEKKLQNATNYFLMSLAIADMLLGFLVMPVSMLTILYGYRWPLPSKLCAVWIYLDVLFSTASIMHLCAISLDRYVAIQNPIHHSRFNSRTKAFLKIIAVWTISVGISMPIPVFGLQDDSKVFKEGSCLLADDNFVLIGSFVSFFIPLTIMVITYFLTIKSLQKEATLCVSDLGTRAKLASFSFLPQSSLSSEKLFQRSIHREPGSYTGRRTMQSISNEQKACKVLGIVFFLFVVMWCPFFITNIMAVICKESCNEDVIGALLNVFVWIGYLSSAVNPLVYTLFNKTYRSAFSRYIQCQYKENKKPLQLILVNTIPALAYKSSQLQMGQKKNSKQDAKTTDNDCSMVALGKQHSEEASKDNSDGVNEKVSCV

[6] = target: H1 (Homo sapiens, UniProt P35367); assay: Off-target profiling panel; type: binding; details: read-out: Inhibition by MBE1 at 10 μM (%)
Sequence of H1 (P35367 whole entry): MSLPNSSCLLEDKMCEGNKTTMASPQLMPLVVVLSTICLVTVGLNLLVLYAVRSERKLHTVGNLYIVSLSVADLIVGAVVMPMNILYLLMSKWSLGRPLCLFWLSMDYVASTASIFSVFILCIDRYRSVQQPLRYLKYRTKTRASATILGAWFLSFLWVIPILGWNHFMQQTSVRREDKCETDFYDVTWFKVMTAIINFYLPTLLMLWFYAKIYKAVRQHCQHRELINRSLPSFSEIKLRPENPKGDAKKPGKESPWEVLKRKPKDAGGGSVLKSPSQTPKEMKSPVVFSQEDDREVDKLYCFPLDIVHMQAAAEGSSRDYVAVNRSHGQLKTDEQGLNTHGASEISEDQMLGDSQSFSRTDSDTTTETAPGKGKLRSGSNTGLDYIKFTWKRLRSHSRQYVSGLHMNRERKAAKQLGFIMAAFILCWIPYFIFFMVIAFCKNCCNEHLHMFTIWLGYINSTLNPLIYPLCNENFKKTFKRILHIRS

[7] = target: Eta agonist (Homo sapiens, UniProt P25101); assay: Off-target profiling panel; type: cell-based; details: read-out: Inhibition by MBE1 at 10 μM (%)
Sequence of Eta agonist (P25101 21-427): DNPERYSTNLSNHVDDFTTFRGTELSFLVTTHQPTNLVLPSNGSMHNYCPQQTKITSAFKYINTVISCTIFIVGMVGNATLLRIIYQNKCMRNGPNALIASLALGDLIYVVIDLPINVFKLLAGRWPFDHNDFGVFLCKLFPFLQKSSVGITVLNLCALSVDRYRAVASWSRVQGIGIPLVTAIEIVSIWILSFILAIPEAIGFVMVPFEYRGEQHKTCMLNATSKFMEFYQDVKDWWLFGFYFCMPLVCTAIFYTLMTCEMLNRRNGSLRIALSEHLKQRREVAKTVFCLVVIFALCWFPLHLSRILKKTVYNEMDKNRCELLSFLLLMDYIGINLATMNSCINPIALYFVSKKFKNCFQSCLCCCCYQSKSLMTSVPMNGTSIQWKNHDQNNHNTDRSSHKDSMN

[8] = target: T3, ALDH1A3 (Homo sapiens, UniProt P47895); assay: Thermal proteome profiling (TPP) in A375 cells; type: cell-based; set-up: endogenous in cells; host or cells: A375 cells; details: 100 nM and 1 μM MBE1, A375 cells
T3 sequence (P47895 1-512): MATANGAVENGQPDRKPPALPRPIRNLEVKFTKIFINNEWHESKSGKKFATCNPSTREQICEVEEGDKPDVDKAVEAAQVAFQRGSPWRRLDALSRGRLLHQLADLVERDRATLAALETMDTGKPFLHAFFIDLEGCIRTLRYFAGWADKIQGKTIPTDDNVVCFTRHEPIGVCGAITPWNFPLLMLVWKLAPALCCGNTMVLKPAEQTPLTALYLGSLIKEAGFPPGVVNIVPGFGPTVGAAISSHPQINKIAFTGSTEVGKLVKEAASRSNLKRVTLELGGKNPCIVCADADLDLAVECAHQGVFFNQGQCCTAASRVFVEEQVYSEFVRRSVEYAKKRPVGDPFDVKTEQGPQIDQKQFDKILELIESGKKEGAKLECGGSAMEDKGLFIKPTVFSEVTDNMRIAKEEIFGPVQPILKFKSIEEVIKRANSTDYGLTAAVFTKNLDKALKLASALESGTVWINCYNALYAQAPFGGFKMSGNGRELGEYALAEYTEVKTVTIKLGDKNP

[9] = target: T4, ALDH1L1 (Homo sapiens, UniProt O75891); assay: Recombinant enzyme activity assay; type: biochemical; details: selectivity profiling
T4 construct: made in house; host or cells: BL21-DE3 E. coli
T4 sequence (O75891 whole entry): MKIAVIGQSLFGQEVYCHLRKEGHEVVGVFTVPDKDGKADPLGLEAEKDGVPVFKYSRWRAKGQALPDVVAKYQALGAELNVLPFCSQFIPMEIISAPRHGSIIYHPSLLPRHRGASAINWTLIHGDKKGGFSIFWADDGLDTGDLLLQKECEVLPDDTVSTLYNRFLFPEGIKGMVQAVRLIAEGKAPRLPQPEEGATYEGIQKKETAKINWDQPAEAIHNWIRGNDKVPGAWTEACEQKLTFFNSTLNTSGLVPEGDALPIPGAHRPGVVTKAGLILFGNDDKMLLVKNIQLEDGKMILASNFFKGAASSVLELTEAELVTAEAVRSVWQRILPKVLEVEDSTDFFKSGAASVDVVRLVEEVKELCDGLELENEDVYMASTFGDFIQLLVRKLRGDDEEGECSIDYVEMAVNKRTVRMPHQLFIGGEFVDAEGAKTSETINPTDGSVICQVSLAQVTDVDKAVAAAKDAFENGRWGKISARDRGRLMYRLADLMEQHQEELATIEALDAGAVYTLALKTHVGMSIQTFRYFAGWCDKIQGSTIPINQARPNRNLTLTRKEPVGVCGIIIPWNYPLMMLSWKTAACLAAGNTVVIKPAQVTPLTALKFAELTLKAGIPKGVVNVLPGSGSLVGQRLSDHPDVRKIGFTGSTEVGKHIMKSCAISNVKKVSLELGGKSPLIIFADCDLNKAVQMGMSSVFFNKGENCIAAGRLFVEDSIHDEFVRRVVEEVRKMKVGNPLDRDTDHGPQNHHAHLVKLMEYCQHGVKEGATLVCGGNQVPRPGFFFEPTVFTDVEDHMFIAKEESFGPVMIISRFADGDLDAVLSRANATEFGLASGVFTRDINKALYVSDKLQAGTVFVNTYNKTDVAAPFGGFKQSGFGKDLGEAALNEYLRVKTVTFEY

[10] = target: T5, ALDH1L2 (Homo sapiens, UniProt Q3SY69); assay: Recombinant enzyme activity assay; type: biochemical; details: selectivity profiling
T5 construct: made in house; host or cells: BL21-DE3 E. coli
T5 sequence (Q3SY69 whole entry): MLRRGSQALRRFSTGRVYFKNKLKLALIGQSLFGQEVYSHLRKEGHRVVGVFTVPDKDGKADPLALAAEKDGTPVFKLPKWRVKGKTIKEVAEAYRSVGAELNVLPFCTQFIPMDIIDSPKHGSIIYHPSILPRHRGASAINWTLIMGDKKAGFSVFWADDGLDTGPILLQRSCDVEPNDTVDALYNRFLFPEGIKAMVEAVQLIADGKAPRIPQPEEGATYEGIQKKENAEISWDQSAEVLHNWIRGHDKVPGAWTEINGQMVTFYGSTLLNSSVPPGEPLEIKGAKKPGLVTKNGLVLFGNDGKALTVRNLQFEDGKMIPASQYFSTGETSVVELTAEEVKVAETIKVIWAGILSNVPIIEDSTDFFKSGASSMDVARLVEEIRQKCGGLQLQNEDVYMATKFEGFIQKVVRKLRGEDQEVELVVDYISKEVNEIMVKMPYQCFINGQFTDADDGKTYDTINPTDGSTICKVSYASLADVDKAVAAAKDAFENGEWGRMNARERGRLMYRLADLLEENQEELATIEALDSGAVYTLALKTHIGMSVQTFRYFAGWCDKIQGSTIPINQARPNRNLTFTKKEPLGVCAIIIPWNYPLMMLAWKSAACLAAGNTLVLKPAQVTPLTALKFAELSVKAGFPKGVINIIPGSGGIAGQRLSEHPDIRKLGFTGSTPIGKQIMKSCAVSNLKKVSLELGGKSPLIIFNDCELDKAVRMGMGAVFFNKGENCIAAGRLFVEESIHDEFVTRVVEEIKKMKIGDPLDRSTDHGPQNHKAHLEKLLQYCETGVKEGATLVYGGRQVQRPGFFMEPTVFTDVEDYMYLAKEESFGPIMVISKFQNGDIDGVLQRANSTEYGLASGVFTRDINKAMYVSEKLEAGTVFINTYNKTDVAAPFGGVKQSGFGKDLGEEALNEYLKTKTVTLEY

[11] = target: T6, ALDH3A1 (Homo sapiens, UniProt P30838); assay: Recombinant enzyme activity assay; type: biochemical; details: selectivity profiling
T6 construct: made in house; host or cells: BL21-DE3 E. coli
T6 sequence (P30838 whole entry): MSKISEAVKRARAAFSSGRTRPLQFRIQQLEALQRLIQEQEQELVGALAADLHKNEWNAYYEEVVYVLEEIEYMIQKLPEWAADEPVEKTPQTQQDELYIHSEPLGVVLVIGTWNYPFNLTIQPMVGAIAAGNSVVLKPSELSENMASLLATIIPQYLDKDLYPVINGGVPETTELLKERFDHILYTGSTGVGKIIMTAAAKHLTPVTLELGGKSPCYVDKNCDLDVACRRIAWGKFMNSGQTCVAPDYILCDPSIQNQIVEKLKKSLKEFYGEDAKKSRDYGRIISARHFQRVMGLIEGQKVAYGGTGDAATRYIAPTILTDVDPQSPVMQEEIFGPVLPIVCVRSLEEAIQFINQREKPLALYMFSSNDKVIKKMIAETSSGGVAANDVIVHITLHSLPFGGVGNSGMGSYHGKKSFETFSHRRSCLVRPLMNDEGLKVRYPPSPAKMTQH

T1 sequence (Q9H8W3 whole entry): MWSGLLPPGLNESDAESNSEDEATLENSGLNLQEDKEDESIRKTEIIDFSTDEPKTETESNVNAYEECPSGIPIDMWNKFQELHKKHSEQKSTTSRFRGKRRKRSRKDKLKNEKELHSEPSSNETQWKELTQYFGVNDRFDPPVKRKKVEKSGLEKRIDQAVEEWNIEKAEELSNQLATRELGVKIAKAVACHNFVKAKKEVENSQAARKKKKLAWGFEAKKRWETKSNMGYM

| Compound | 100nM MBE1 Tm [1] | DMSO-100nM MBE1 TM [1] | 1uM MBE1 Tm [2] | inhibition at 10 µM [3] [%] | Inhibition by MBE1 at 10 μM (%) [4] [%] | inhibition at 10 µM [5] [%] | inhibition at 10 µM [6] [%] | inhibition at 10 µM [7] [%] | thermal stabilization of ALDH1A3 in TPP (in words) [8] | inhibitory activity against ALDH1L1 (in words) [9] | inhibitory activity against ALDH1L2 (in words) [10] | inhibitory activity against ALDH3A1 (in words) [11] |
| --- | --- | --- | --- | --- | --- | --- | --- | --- | --- | --- | --- | --- |
| CCc1cnccc1C(=O)Nc1cc2c(cc1F)NC(=O)CC2 [MBE1, 3-ethyl-N-(7-fluoro-2-oxo-3,4-dihydro-1H-quinolin-6-yl)pyridine-4-carboxamide] | 63.4426 | -8.6993 | 64 | 5.88 | −0.09 | -16.1 | -11.7 | -0.16 | stabilized | – | – | – |
| CCc1ccccc1C(=O)Nc1cc2c(cc1F)NC(=O)CC2 [MBE1.5, 2-ethyl-N-(7-fluoro-2-oxo-3,4-dihydro-1H-quinolin-6-yl)benzamide] | – | – | – | – | – | – | – | – | – | no inhibition | no inhibition | no inhibition |
